Literature values, collected in patent US9421268B2, “Pediatric oral liquid compositions containing nepadutant” (LABORATORI GUIDOTTI S.P.A., priority 2012, dated 2016).
Bridge positions count the residues as written; N and C are the ends. Square brackets hold non-standard residues; d marks the D form. Peptide text beside a SMILES is read from it. * marks the point of attachment. NH(β-GlcNAc) = CC(=O)N[C@@H]1[C@@H](O)[C@H](O)[C@@H](CO)O[C@H]1N*; Dap = NC[C@H](N)C(=O)O

How the values were obtained:
NK2 receptors = target: T1, NK2 receptors (Rattus norvegicus, UniProt P16610); conditions: oral, new born rats, basal parameters not altered; cited from earlier work
T1 construct: from tissue; host or cells: intestine of new born rats (in vivo)
T1 sequence (P16610 1-390): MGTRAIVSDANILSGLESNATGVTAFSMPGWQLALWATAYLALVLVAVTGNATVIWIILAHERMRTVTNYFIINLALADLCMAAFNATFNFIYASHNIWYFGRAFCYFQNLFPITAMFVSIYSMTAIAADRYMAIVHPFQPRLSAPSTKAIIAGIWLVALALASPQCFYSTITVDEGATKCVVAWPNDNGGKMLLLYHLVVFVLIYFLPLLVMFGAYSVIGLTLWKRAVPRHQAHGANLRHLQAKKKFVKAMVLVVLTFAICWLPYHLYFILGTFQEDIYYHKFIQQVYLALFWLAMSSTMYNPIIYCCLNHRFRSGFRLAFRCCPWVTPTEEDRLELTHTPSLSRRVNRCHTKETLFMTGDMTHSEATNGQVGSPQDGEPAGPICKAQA

hyperalgesia = conditions: new born rats; cited from earlier work
[1] = in vivo; cited from earlier work

For `CC(=O)N[C@@H]1[C@@H](O)[C@H](O)[C@@H](CO)O[C@H]1NC(=O)C[C@@H]1NC(=O)[C@H](CC(C)C)NC(=O)[C@@H]2CNC(=O)C[C@H](NC1=O)C(=O)N[C@@H](Cc1c[nH]c3ccccc13)C(=O)N[C@@H](Cc1ccccc1)C(=O)N2` [Nepadutant, [N^4-(2-acetylamino-2-deoxy-β-D-glucopyranosyl)-L-asparaginyl-L-α-triptophan-L-phenylalanyl-L-2,3-diaminopropio-nil-L-leucil]-C-4.2-N-3.5-lattame-C-1.6-N-2.1-lattame] (cyclo(D(NH(β-GlcNAc))DWF[Dap]L); lactam 2-5), the “time after administration up to which the increase in intestinal transit is blocked” value (NK2 receptors) is listed as “up to 24 hours”, the “efficacy in a model of hyperalgesia” value (hyperalgesia) is listed as “effective” and the oral absorption [1] is listed as “absorbed”.
